# Test results: PubChem BioAssay (NCI)
#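 Cells were grown in 96-well plates and exposed to each compound for 48 hours at five concentrations; endpoints were interpolated linearly between bracketing concentrations, or set to the highest concentration if not reached. GI50 marks 50% less growth. Definition used: TGI = concentration required for complete inhibition of growth.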
# Experiments:
# Experiment in all cases: inhibition of tumour cell growth, NCI panel, 48 h
# COLO 205 colon = system: COLO 205 colon
# U251 CNS = system: U251 CNS
# RPMI-8226 leukemia = system: RPMI-8226 leukemia
# MDA-MB-435 = system: MDA-MB-435
# SK-MEL-28 melanoma = system: SK-MEL-28 melanoma
# BT-549 breast = system: BT-549 breast
# PC-3 prostate = system: PC-3 prostate
# OVCAR-5 ovarian = system: OVCAR-5 ovarian
# EKVX NSCLC = system: EKVX NSCLC
# M14 melanoma = system: M14 melanoma
# RXF 393 renal = system: RXF 393 renal
# T-47D breast = system: T-47D breast
# MALME-3M melanoma = system: MALME-3M melanoma
# SF-539 CNS = system: SF-539 CNS
# SK-MEL-2 melanoma = system: SK-MEL-2 melanoma
# SF-295 CNS = system: SF-295 CNS
# SK-MEL-5 melanoma = system: SK-MEL-5 melanoma
# SW-620 colon = system: SW-620 colon
# UACC-257 melanoma = system: UACC-257 melanoma
# 786-0 renal = system: 786-0 renal
# SK-OV-3 ovarian = system: SK-OV-3 ovarian
# A498 renal = system: A498 renal
# A549 NSCLC = system: A549 NSCLC
# NCI-H460 lung = system: NCI-H460 lung
# OVCAR-3 ovarian = system: OVCAR-3 ovarian
# SF-268 CNS = system: SF-268 CNS
# SN12C renal = system: SN12C renal
# CCRF-CEM leukemia = system: CCRF-CEM leukemia
# UACC-62 melanoma = system: UACC-62 melanoma
# NCI-H522 lung = system: NCI-H522 lung
# MDA-MB-231 breast = system: MDA-MB-231 breast
# IGROV1 ovarian = system: IGROV1 ovarian
# HS 578T breast = system: HS 578T breast
# ACHN renal = system: ACHN renal
# MOLT-4 leukemia = system: MOLT-4 leukemia
# UO-31 renal = system: UO-31 renal
# TK-10 renal = system: TK-10 renal
# DU-145 prostate = system: DU-145 prostate
# SNB-75 CNS = system: SNB-75 CNS
# SR leukemia = system: SR leukemia
# HCT-116 colon = system: HCT-116 colon
# HL-60(TB) leukemia = system: HL-60(TB) leukemia
# NCI-H226 lung = system: NCI-H226 lung
# HT29 colon = system: HT29 colon
# CAKI-1 renal = system: CAKI-1 renal
# KM12 colon = system: KM12 colon
# SNB-19 CNS = system: SNB-19 CNS
# NCI/ADR-RES ovarian = system: NCI/ADR-RES ovarian
# HCT-15 colon = system: HCT-15 colon
# K-562 leukemia = system: K-562 leukemia
# NCI-H23 lung = system: NCI-H23 lung
# OVCAR-8 ovarian = system: OVCAR-8 ovarian
# HOP-62 NSCLC = system: HOP-62 NSCLC
# HCC-2998 colon = system: HCC-2998 colon
# MCF7 breast = system: MCF7 breast
# LOX IMVI melanoma = system: LOX IMVI melanoma
# OVCAR-4 ovarian = system: OVCAR-4 ovarian
smiles,measurement,setting,value
C=C(C)[C@@H]1CCC=C2CC[C@]3(C)[C@H](CC[C@@H]4[C@@]5(C)CCCNC(C)(C)[C@@H]5CC[C@]43C)[C@H]21,GI50,COLO 205 colon,1.9 µM
same,TGI,COLO 205 colon,3.65 µM
same,GI50,U251 CNS,1.69 µM
same,TGI,U251 CNS,3.12 µM
same,GI50,RPMI-8226 leukemia,2.14 µM
same,TGI,RPMI-8226 leukemia,5.15 µM
same,GI50,MDA-MB-435,1.66 µM
same,TGI,MDA-MB-435,3.11 µM
same,GI50,SK-MEL-28 melanoma,2.03 µM
same,TGI,SK-MEL-28 melanoma,4.07 µM
same,GI50,BT-549 breast,4.5 µM
same,TGI,BT-549 breast,20.7 µM
same,GI50,PC-3 prostate,2.31 µM
same,TGI,PC-3 prostate,6.21 µM
same,GI50,OVCAR-5 ovarian,2.01 µM
same,TGI,OVCAR-5 ovarian,4.46 µM
same,GI50,EKVX NSCLC,2.17 µM
same,TGI,EKVX NSCLC,5.6 µM
same,GI50,M14 melanoma,1.73 µM
same,TGI,M14 melanoma,3.34 µM
same,GI50,RXF 393 renal,1.63 µM
same,TGI,RXF 393 renal,3.13 µM
same,GI50,T-47D breast,1.77 µM
same,TGI,T-47D breast,4.83 µM
same,GI50,MALME-3M melanoma,1.77 µM
same,TGI,MALME-3M melanoma,3.74 µM
same,GI50,SF-539 CNS,1.89 µM
same,TGI,SF-539 CNS,3.58 µM
same,GI50,SK-MEL-2 melanoma,2.34 µM
same,TGI,SK-MEL-2 melanoma,5.5 µM
same,GI50,SF-295 CNS,1.69 µM
same,TGI,SF-295 CNS,3.13 µM
same,GI50,SK-MEL-5 melanoma,3.58 µM
same,TGI,SK-MEL-5 melanoma,14 µM
same,GI50,SW-620 colon,1.84 µM
same,TGI,SW-620 colon,3.59 µM
same,GI50,UACC-257 melanoma,3.34 µM
same,TGI,UACC-257 melanoma,9.32 µM
same,GI50,786-0 renal,1.68 µM
same,TGI,786-0 renal,3.04 µM
same,GI50,SK-OV-3 ovarian,12.1 µM
same,TGI,SK-OV-3 ovarian,27.3 µM
same,GI50,A498 renal,11.7 µM
same,TGI,A498 renal,26.9 µM
same,GI50,A549 NSCLC,2.04 µM
same,TGI,A549 NSCLC,3.86 µM
same,GI50,NCI-H460 lung,1.93 µM
same,TGI,NCI-H460 lung,3.73 µM
same,GI50,OVCAR-3 ovarian,1.8 µM
same,TGI,OVCAR-3 ovarian,3.29 µM
same,GI50,SF-268 CNS,2.77 µM
same,TGI,SF-268 CNS,8.53 µM
same,GI50,SN12C renal,1.79 µM
same,TGI,SN12C renal,3.48 µM
same,GI50,CCRF-CEM leukemia,2.48 µM
same,TGI,CCRF-CEM leukemia,7.21 µM
same,GI50,UACC-62 melanoma,1.92 µM
same,TGI,UACC-62 melanoma,3.84 µM
same,GI50,NCI-H522 lung,2.28 µM
same,TGI,NCI-H522 lung,5.64 µM
same,GI50,MDA-MB-231 breast,1.77 µM
same,TGI,MDA-MB-231 breast,3.31 µM
same,GI50,IGROV1 ovarian,1.91 µM
same,TGI,IGROV1 ovarian,3.54 µM
same,GI50,HS 578T breast,2.01 µM
same,TGI,HS 578T breast,4.87 µM
same,GI50,ACHN renal,1.85 µM
same,TGI,ACHN renal,3.25 µM
same,GI50,MOLT-4 leukemia,1.87 µM
same,TGI,MOLT-4 leukemia,4.09 µM
same,GI50,UO-31 renal,1.53 µM
same,TGI,UO-31 renal,2.99 µM
same,GI50,TK-10 renal,2.02 µM
same,TGI,TK-10 renal,4.98 µM
same,GI50,DU-145 prostate,1.86 µM
same,TGI,DU-145 prostate,3.57 µM
same,GI50,SNB-75 CNS,1.67 µM
same,TGI,SNB-75 CNS,3.94 µM
same,GI50,SR leukemia,1.25 µM
same,TGI,SR leukemia,3.65 µM
same,GI50,HCT-116 colon,1.79 µM
same,TGI,HCT-116 colon,3.2 µM
same,GI50,HL-60(TB) leukemia,1.58 µM
same,TGI,HL-60(TB) leukemia,3.57 µM
same,GI50,NCI-H226 lung,2.8 µM
same,TGI,NCI-H226 lung,9.14 µM
COC(=O)C1CC2(C)C=CC1N(C(=O)OCc1ccccc1)C2 (stereo not drawn),TGI,COLO 205 colon,> 100 µM
same,TGI,U251 CNS,> 100 µM
same,TGI,RPMI-8226 leukemia,> 100 µM
same,TGI,MDA-MB-435,> 100 µM
same,TGI,HT29 colon,> 100 µM
same,TGI,SK-MEL-28 melanoma,> 100 µM
same,TGI,CAKI-1 renal,> 100 µM
same,TGI,BT-549 breast,> 100 µM
same,TGI,PC-3 prostate,> 100 µM
same,TGI,KM12 colon,> 100 µM
same,TGI,OVCAR-5 ovarian,> 100 µM
same,TGI,EKVX NSCLC,> 100 µM
same,TGI,M14 melanoma,> 100 µM
same,TGI,RXF 393 renal,> 100 µM
same,TGI,SNB-19 CNS,> 100 µM
same,TGI,T-47D breast,> 100 µM
same,TGI,MALME-3M melanoma,> 100 µM
same,TGI,NCI/ADR-RES ovarian,> 100 µM
same,TGI,SF-539 CNS,> 100 µM
same,TGI,SK-MEL-2 melanoma,> 100 µM
same,TGI,SF-295 CNS,> 100 µM
same,TGI,SK-MEL-5 melanoma,> 100 µM
same,TGI,SW-620 colon,> 100 µM
same,TGI,UACC-257 melanoma,> 100 µM
same,TGI,786-0 renal,> 100 µM
same,TGI,HCT-15 colon,> 100 µM
same,TGI,SK-OV-3 ovarian,> 100 µM
same,TGI,A498 renal,> 100 µM
same,TGI,A549 NSCLC,> 100 µM
same,TGI,NCI-H460 lung,> 100 µM
same,TGI,K-562 leukemia,> 100 µM
same,TGI,OVCAR-3 ovarian,> 100 µM
same,TGI,SF-268 CNS,> 100 µM
same,TGI,SN12C renal,> 100 µM
same,TGI,NCI-H23 lung,> 100 µM
same,TGI,OVCAR-8 ovarian,> 100 µM
same,TGI,CCRF-CEM leukemia,> 100 µM
same,TGI,UACC-62 melanoma,> 100 µM
same,TGI,NCI-H522 lung,> 100 µM
same,TGI,MDA-MB-231 breast,> 100 µM
same,TGI,HOP-62 NSCLC,> 100 µM
same,TGI,IGROV1 ovarian,> 100 µM
same,TGI,HS 578T breast,> 100 µM
same,TGI,ACHN renal,> 100 µM
same,TGI,MOLT-4 leukemia,> 100 µM
same,TGI,HCC-2998 colon,> 100 µM
same,TGI,MCF7 breast,> 100 µM
same,TGI,UO-31 renal,> 100 µM
same,TGI,TK-10 renal,> 100 µM
same,TGI,DU-145 prostate,> 100 µM
same,TGI,SNB-75 CNS,> 100 µM
same,TGI,SR leukemia,> 100 µM
same,TGI,LOX IMVI melanoma,> 100 µM
same,TGI,HCT-116 colon,> 100 µM
same,TGI,HL-60(TB) leukemia,70.7 µM
same,TGI,OVCAR-4 ovarian,> 100 µM
same,TGI,NCI-H226 lung,> 100 µM
